Data: PMC10180137 (Molecules, 2023)
Like-named read-outs stand apart in the source and are kept apart here.

Experiments:
yeast α-glucosidase = test: α-glucosidase inhibitory activity assay (p-NPG substrate, absorbance at 405 nm); type: biochemical, Saccharomyces cerevisiae
Experimental: This experiment was carried out in 96-well plates with reaction system of 230 μL. […] The 96-well plates were incubated in a constant-temperature incubator for 20 min at 37 °C, then 20 μL of 2.658 mmol/L p-PNG was added, and then incubation continued for another 28 min. The termination of the reaction was conducted by adding 80 μL of 0.2 mol/L Na2CO3 to each well. The absorbance was recorded for each well at 405 nm by a microplate reader, and the experiment was carried out three times in parallel. The measured absorbance values were processed by Graphpad Prism software 9.5 to calculate the IC50 values of the compounds.

α-glucosidase = test: Inhibitory kinetics against α-glucosidase (Lineweaver–Burk plots); type: biochemical, Saccharomyces cerevisiae; conditions: Lineweaver–Burk plot; compound 0, 5.44, 10.87, 21.74 μM
Source text: The inhibitory kinetics of seven compounds (8-9, 11, 13, 24-26) that have strong α-glucosidase inhibitory activities were studied. The Lineweaver–Burk plot was used to determine their inhibition types against α-glucosidase. […] As for compound 8, the slope of the lines became greater with the increase in the concentration, but all straight lines intersected with the x-axis almost at one point (while Vmax decreased, Km was unchanged), showing that α-glucosidase inhibition mediated by compound 8 is noncompetitive, signifying that it can bind to either the free α-glucosidase or the enzyme–substrate complex to interfere the enzyme reaction without directly blocking the binding of the substrate to the enzyme.
Concentrations of active compounds 8-9, 11, 13, 24-26 (0, 5.44, 10.87, 21.74 μM) and the substrate p-NPG ([…]) were prepared, and an experimental protocol is described in detail in the literature. The data were acquired using the Lineweaver–Burk equation of enzyme kinetics.

[1] = IC50 ± SD, PBS pH 6.8, 37 °C, three times in parallel, read-out: IC50 (μM), inhibition activities on α-Glucosidase
[2] = unit inferred, read-out: IC50 against α-glucosidase (unit inferred)

Row | Compound | IC50 (yeast α-glucosidase; [1]) | further results
1 | COc1cc(O)c2c(c1)O[C@H](c1ccccc1)CC2=O [Compound 15, pinostrobin] | > 2000 µM | –
2 | COc1cc(O)c2c(=O)cc(-c3ccccc3)oc2c1CC=C(C)C [Compound 13, 5-hydroxy-7-methoxy-8-prenylflavone] | 2.3 ± 0.51 µM | IC50 (yeast α-glucosidase; [2]): 2.3 ± 0.5 µM; inhibition type against α-glucosidase (α-glucosidase): mixed-competitive
3 | COc1ccc2c(=O)c(-c3ccc(O)cc3O)coc2c1 [Compound 18, 7-methoxy-2′, 4′-dihydroxy isoflavone] | > 2000 µM | –
4 | COc1cc(O)cc(/C=C/c2ccccc2)c1 [Compound 6, pinosylvin monomethyl ether] | > 2000 µM | –
5 | O=c1cc(-c2ccc(O)c(O)c2)oc2cc(O)ccc12 [Compound 25, 7, 3′, 4′-trihydroxy flavone] | 3.17 ± 0.55 µM | IC50 (yeast α-glucosidase; [2]): 3.17 ± 0.55 µM
6 | COc1cc(/C=C/c2ccccc2)cc(O)c1CC=C(C)C [Compound 9, longistylin A] | 12.9 ± 1.31 µM | inhibition type against α-glucosidase (α-glucosidase): mixed-competitive
7 | O=c1cc(-c2ccc(O)cc2)oc2c(C3OCC(O)C(O)C3O)c(O)cc(O)c12 [Compound 23, apigenin-8-C-α-L-arabinopyranoside] | > 2000 µM | –
8 | CC(C)=CCc1c(O)cc(O)c2c(=O)c(O)c(-c3ccc(O)c(O)c3)oc12 [Compound 11, 8-prenylquercretin] | 0.87 ± 0.05 µM | IC50 (yeast α-glucosidase; read-out: IC50 against α-glucosidase (text, with unit)): 0.87 ± 0.05 µM; inhibition type against α-glucosidase (α-glucosidase): anticompetitive
9 | COc1ccc(-c2oc3cc(O)cc(O)c3c(=O)c2O)cc1O [Compound 19, tamarixetin] | 8.7 ± 0.08 µM | –
10 | CC1(C)Oc2cc(/C=C/c3ccccc3)cc(O)c2CC1O (stereo not drawn) [Compound 4, chiricanine B] | > 2000 µM | –
11 | CC(C)=CCc1c(O)cc2oc(-c3ccccc3)cc(=O)c2c1O [Compound 12, 6-C-(3,3-dimethylallyl) chrysin] | > 2000 µM | –
12 | COc1cc(O)c2c3c1C[C@H](C(C)(C)O)[C@H](c1ccccc1)[C@H]3OC2=O [Compound 1, cajanstilbenoid C] | > 2000 µM | –
13 | COc1cc(/C=C/c2ccccc2)c(C(=O)O)c(O)c1CC=C(C)C [Compound 5, cajaninstilbene acid] | > 2000 µM | –
14 | 7, 3′, 4′-trihydroxy isoflavone [Compound 24] | 6.5 ± 0.42 µM | –
15 | CC(C)=CCc1c(O)cc(/C=C/c2ccccc2)cc1O [Compound 3, chiricanine A] | 30.3 ± 2.33 µM | –
16 | COc1cc(O)c2c(c1CC=C(C)C)O[C@H](c1ccccc1)[C@@H](O)C2=O [Compound 14, 3,5-dihydroxy-7-methoxy-8-isopentenyl-dihydroflavone] | > 2000 µM | –
17 | COc1cc(/C=C/c2ccccc2)c(C(=O)O)c2c1C[C@@H](O)C(C)(C)O2 [Compound 2, cajanstilbenoid D] | > 2000 µM | –
18 | 3, 4′-O-dimethylquercetin [Compound 21] | 19.4 ± 1.02 µM | –
19 | CC1(C)C=Cc2c(cc(O)c3c2O[C@H](c2ccc(O)cc2)CC3=O)O1 [Compound 26, 8-prenylnaringenin C] | 2.35 ± 0.54 µM | IC50 (yeast α-glucosidase; [2]): 2.35 ± 0.54 µM
20 | CC1(C)C=Cc2c(cc3occ(-c4ccc(O)cc4)c(=O)c3c2O)O1 [Compound 27, alpinum isoflavone] | > 2000 µM | –
21 | COc1cc(O)c2c(c1)O[C@H](c1ccc(O)cc1)CC2=O [Compound 16, sakuranetin] | > 2000 µM | –
22 | COc1cc(O)cc(CC(=O)c2ccccc2)c1CC=C(C)C [Compound 7, cajanotone] | > 2000 µM | –
23 | CC(C)=CCc1c(O)cc(O)c2c1O[C@H](c1ccc(O)cc1)[C@@H](O)C2=O [Compound 20, neophellamuretin] | 4.5 ± 0.49 µM | IC50 (yeast α-glucosidase; [2]): 4.5 ± 0.49 µM
24 | COc1cc(O)cc(CCc2ccccc2)c1CC=C(C)C [Compound 8] | 7 ± 0.45 µM | inhibition type against α-glucosidase (α-glucosidase): noncompetitive
